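Grown in 96-well plates, cells were treated for 48 hours with each compound at five concentrations. Insufficient inhibition: endpoint recorded as highest concentration tested. TGI: total growth inhibition.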
Columns and labels:
Assay in all cases: NCI-60 cell line screen, 48 h
[1] = test system: UACC-257 melanoma
[2] = test system: MDA-MB-435
[3] = test system: U251 CNS
[4] = test system: TK-10 renal
[5] = test system: HOP-62 NSCLC
[6] = test system: LOX IMVI melanoma
[7] = test system: HCT-15 colon
[8] = test system: PC-3 prostate
[9] = test system: NCI-H522 lung
[10] = test system: HS 578T breast
[11] = test system: SK-MEL-2 melanoma
[12] = test system: MDA-N
[13] = test system: NCI-H23 lung
[14] = test system: IGROV1 ovarian
[15] = test system: COLO 205 colon
[16] = test system: NCI/ADR-RES ovarian
[17] = test system: MDA-MB-231 breast
[18] = test system: 786-0 renal
[19] = test system: ACHN renal
[20] = test system: RPMI-8226 leukemia
[21] = test system: CCRF-CEM leukemia
[22] = test system: HCC-2998 colon
[23] = test system: HT29 colon
[24] = test system: EKVX NSCLC
[25] = test system: MALME-3M melanoma
[26] = test system: NCI-H226 lung
[27] = test system: SK-MEL-28 melanoma
[28] = test system: OVCAR-4 ovarian
[29] = test system: SN12C renal
[30] = test system: HCT-116 colon
[31] = test system: SNB-75 CNS
[32] = test system: SF-268 CNS
[33] = test system: DU-145 prostate
[34] = test system: UACC-62 melanoma
[35] = test system: OVCAR-3 ovarian
[36] = test system: HL-60(TB) leukemia
[37] = test system: T-47D breast
[38] = test system: NCI-H460 lung
[39] = test system: CAKI-1 renal
[40] = test system: HOP-92 NSCLC
[41] = test system: A498 renal
[42] = test system: UO-31 renal
[43] = test system: MOLT-4 leukemia
[44] = test system: KM12 colon
[45] = test system: SNB-19 CNS
[46] = test system: SK-MEL-5 melanoma
[47] = test system: OVCAR-8 ovarian
[48] = test system: K-562 leukemia
[49] = test system: SW-620 colon
[50] = test system: SK-OV-3 ovarian
[51] = test system: MCF7 breast
[52] = test system: M14 melanoma
[53] = test system: BT-549 breast
[54] = test system: SF-295 CNS
[55] = test system: A549 NSCLC
[56] = test system: SF-539 CNS
[57] = test system: OVCAR-5 ovarian
[58] = test system: SR leukemia
[59] = test system: RXF 393 renal

O=c1oc2ccccc2c(O)c1C(c1ccco1)c1c(O)c2ccccc2oc1=O
TGI [1]: 63.4 µM | TGI [2]: 85.4 µM | TGI [3]: 61.8 µM | TGI [4]: 80.2 µM | TGI [5]: > 100 µM | TGI [6]: 61.1 µM | TGI [7]: 41.4 µM | TGI [8]: > 100 µM | TGI [9]: 41.8 µM | TGI [10]: > 100 µM | TGI [11]: > 100 µM | TGI [12]: 44.9 µM | TGI [13]: > 100 µM | TGI [14]: 45.8 µM | TGI [15]: 48.9 µM | TGI [16]: > 100 µM | TGI [17]: 36 µM | TGI [18]: 55.5 µM | TGI [19]: 55.8 µM | TGI [20]: 66.1 µM | TGI [21]: 73.8 µM | TGI [22]: 55.1 µM | TGI [23]: > 100 µM | TGI [24]: > 100 µM | TGI [25]: 41.7 µM | TGI [26]: > 100 µM | TGI [27]: 52.1 µM | TGI [28]: > 100 µM | TGI [29]: 63.1 µM | TGI [30]: > 100 µM | TGI [31]: 95.9 µM | TGI [32]: 79.8 µM | TGI [33]: > 100 µM | TGI [34]: 70 µM | TGI [35]: > 100 µM | TGI [36]: > 100 µM | TGI [37]: > 100 µM | TGI [38]: > 100 µM | TGI [39]: 42.4 µM | TGI [40]: > 100 µM | TGI [41]: > 100 µM | TGI [42]: 43.9 µM | TGI [43]: 62.1 µM | TGI [44]: > 100 µM | TGI [45]: > 100 µM | TGI [46]: > 100 µM | TGI [47]: 82 µM | TGI [48]: > 100 µM | TGI [49]: 49.8 µM

Cc1cccc2c1Oc1cc(Cl)ccc1C2NC(=O)CCN1CCN(CCO)CC1 (stereo not drawn)
TGI [1]: 33.7 µM | TGI [50]: > 100 µM | TGI [2]: 27.5 µM | TGI [3]: 29.3 µM | TGI [5]: 32.9 µM | TGI [6]: 9.7 µM | TGI [51]: 30.3 µM | TGI [7]: 34.1 µM | TGI [8]: 28.1 µM | TGI [9]: 23.2 µM | TGI [12]: 14.6 µM | TGI [13]: 51.5 µM | TGI [14]: > 100 µM | TGI [15]: 36.6 µM | TGI [16]: 30.9 µM | TGI [17]: 14.6 µM | TGI [18]: 26.5 µM | TGI [52]: 30.3 µM | TGI [21]: 37.9 µM | TGI [22]: 43.7 µM | TGI [23]: 29.8 µM | TGI [24]: 70.5 µM | TGI [27]: 9.93 µM | TGI [28]: 31 µM | TGI [29]: 28.7 µM | TGI [53]: 37.5 µM | TGI [30]: 34.6 µM | TGI [31]: 25.1 µM | TGI [32]: > 100 µM | TGI [33]: 61.2 µM | TGI [54]: 33 µM | TGI [34]: 28.7 µM | TGI [35]: 34 µM | TGI [36]: 39 µM | TGI [37]: 34.2 µM | TGI [55]: 23.7 µM | TGI [38]: 34.2 µM | TGI [56]: 26 µM | TGI [57]: 40.9 µM | TGI [40]: 22.8 µM | TGI [58]: 45.1 µM | TGI [42]: 26.8 µM | TGI [43]: 38.9 µM | TGI [44]: 11.5 µM | TGI [45]: 72 µM | TGI [46]: 27 µM | TGI [47]: 26.3 µM | TGI [48]: 40.6 µM | TGI [49]: 32.2 µM

CN1C2CC(=O)CC1[C@H](O)[C@@H]2O
TGI [1]: > 100 µM | TGI [2]: > 100 µM | TGI [3]: > 100 µM | TGI [4]: > 100 µM | TGI [5]: > 100 µM | TGI [6]: > 100 µM | TGI [51]: > 100 µM | TGI [7]: > 100 µM | TGI [8]: > 100 µM | TGI [11]: > 100 µM | TGI [12]: > 100 µM | TGI [13]: > 100 µM | TGI [15]: > 100 µM | TGI [16]: > 100 µM | TGI [17]: > 100 µM | TGI [20]: > 100 µM | TGI [52]: > 100 µM | TGI [21]: > 100 µM | TGI [22]: > 100 µM | TGI [23]: > 100 µM | TGI [24]: > 100 µM | TGI [25]: > 100 µM | TGI [26]: > 100 µM | TGI [27]: > 100 µM | TGI [29]: > 100 µM | TGI [53]: > 100 µM | TGI [30]: > 100 µM | TGI [32]: > 100 µM | TGI [33]: > 100 µM | TGI [54]: > 100 µM | TGI [35]: > 100 µM | TGI [36]: > 100 µM | TGI [37]: > 100 µM | TGI [38]: > 100 µM | TGI [58]: > 100 µM | TGI [59]: > 100 µM | TGI [42]: > 100 µM | TGI [43]: > 100 µM | TGI [44]: > 100 µM | TGI [45]: > 100 µM | TGI [47]: > 100 µM | TGI [48]: > 100 µM | TGI [49]: > 100 µM

Cc1cn(C2CCC(/C=N\O)O2)c(=O)[nH]c1=O (stereo not drawn)
TGI [1]: > 100 µM | TGI [2]: > 100 µM | TGI [3]: > 100 µM | TGI [5]: > 100 µM | TGI [6]: > 100 µM | TGI [51]: > 100 µM | TGI [7]: > 100 µM | TGI [8]: > 100 µM | TGI [11]: > 100 µM | TGI [12]: > 100 µM | TGI [13]: > 100 µM | TGI [14]: > 100 µM | TGI [15]: > 100 µM | TGI [16]: > 100 µM | TGI [17]: > 100 µM | TGI [18]: > 100 µM | TGI [19]: > 100 µM | TGI [20]: > 100 µM | TGI [52]: > 100 µM | TGI [21]: > 100 µM | TGI [22]: > 100 µM | TGI [23]: > 100 µM | TGI [24]: > 100 µM | TGI [26]: > 100 µM | TGI [27]: > 100 µM | TGI [28]: > 100 µM | TGI [29]: > 100 µM | TGI [53]: > 100 µM | TGI [30]: > 100 µM | TGI [31]: > 100 µM | TGI [33]: > 100 µM | TGI [54]: > 100 µM | TGI [34]: > 100 µM | TGI [35]: > 100 µM | TGI [37]: > 100 µM | TGI [55]: > 100 µM | TGI [38]: > 100 µM | TGI [56]: > 100 µM | TGI [39]: > 100 µM | TGI [57]: > 100 µM | TGI [40]: > 100 µM | TGI [58]: > 100 µM | TGI [41]: > 100 µM | TGI [59]: > 100 µM | TGI [42]: > 100 µM | TGI [43]: > 100 µM | TGI [44]: > 100 µM | TGI [45]: > 100 µM | TGI [46]: > 100 µM | TGI [47]: > 100 µM | TGI [48]: > 100 µM | TGI [49]: > 100 µM

Reference: PubChem BioAssay (NCI)
